From paper PMC6154579, “Anti-Melanogenic Properties of Greek Plants. A Novel Depigmenting Agent from Morus alba Wood” (Molecules : A Journal of Synthetic Chemistry and Natural …, 2017)
“And” between values parts separate entries of the source, which are not always exact repeats. Equal entries are not always repeated. “Also recorded” adds a separate entry of the source. Where two headings read alike, the source gives them in different places.

How the values were obtained:
B16F10 cells = assay: MTT cytotoxicity assay; type: cell-based, Mouse; conditions: high concentrations
Protocol: Mouse skin melanoma (B16F10) cells were obtained from the American Tissue Culture Collection (Manassas, VA, USA) and were maintained in Dulbecco's modified Eagle’s medium (Gibco, Thermo Fischer Scientific, Waltham, MA, USA), supplemented with 10% (v/v) fetal bovine serum (Gibco, Thermo Fischer Scientific) and 2 mM glutamine (Gibco, Thermo Fischer Scientific) in a humidified incubator at 5% CO2 and 37 °C.
MTT cytotoxicity assay was performed as described previously. Briefly, B16F10 cells were cultured at 96-wellmicroplates (5000 cells/well). After 24 h the cells were treated with different concentrations of the extracts (in control cells an appropriate amount of DMSO was added). The MTT solution (MTT, Sigma-Aldrich) (1 mg/mL in serum free, phenol red free medium) was added 48 h after the addition of test extracts. After 4 h, the MTT solution was discarded and isopropanol was added to dissolve the formazan crystals. Absorbance was recorded at 570 nm using a microplate reader (EZ Read 400 ELISA microplate reader, Biochrom, Cambridge, UK). Survival of non-treated cells was set to 100%.

mushroom tyrosinase = molecular target: T1, mushroom tyrosinase (Agaricus bisporus, UniProt C7FF04); assay: Tyrosinase inhibition assay (oxidation of L-DOPA, diphenolase activity); type: biochemical; conditions: for inhibition at 60 µM: read-out: Tyrosinase Inhibition % ± STD (60 μM); for inhibition at 300 µM: read-out: Tyrosinase Inhibition % ± STD (300 μM); for fold more potent tyrosinase inhibition than kojic acid: ratio of IC50 values vs reference kojic acid;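 as to all read-outs here: dopachrome formation from L-DOPA by mushroom tyrosinase in phosphate buffer, compound preincubated with enzyme 10 min at 25 °C, inhibition versus sample-free control, enzyme-free blanks subtracted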
T1 construct: purchased Sigma-Aldrich

zebrafish embryos = assay: In vivo inhibition of melanogenesis assay; conditions: embryos treated 24 to 48 hpf, ranking: most potent, followed by, weakest, Figure 5: MAM 70, F33 70, F38-42 10, F43 10, 1/5/6/7 50, 2 7, 11 10 μg/mL
[1] = compound at 60 μM, two independent experiments
[2] = compound at 300 μM, two independent experiments
[3] = diphenolase activity, three independent experiments, read-out: Tyrosinase Inhibition IC50 ± STD

T1 sequence (C7FF04 1-392 limits assumed): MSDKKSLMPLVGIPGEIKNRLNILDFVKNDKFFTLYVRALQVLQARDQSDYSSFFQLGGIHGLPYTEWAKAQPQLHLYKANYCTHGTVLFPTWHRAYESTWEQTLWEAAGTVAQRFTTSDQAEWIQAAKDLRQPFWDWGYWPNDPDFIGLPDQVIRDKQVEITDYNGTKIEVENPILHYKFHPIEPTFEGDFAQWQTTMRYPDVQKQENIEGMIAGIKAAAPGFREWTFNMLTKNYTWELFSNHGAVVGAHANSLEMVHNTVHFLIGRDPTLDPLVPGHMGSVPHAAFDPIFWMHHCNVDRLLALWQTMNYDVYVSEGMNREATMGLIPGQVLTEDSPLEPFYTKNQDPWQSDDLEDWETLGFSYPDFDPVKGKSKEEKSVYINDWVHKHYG

| SMILES | inhibition at 60 µM (mushroom tyrosinase; [1]) [%] | inhibition at 300 µM (mushroom tyrosinase; [2]) [%] | melanogenesis inhibition on zebrafish embryos (in words) (zebrafish embryos) | IC50 (mushroom tyrosinase) [µM] | further results |
| --- | --- | --- | --- | --- | --- |
| Oc1cccc(CCc2ccc(O)cc2O)c1 [2,4,3′-Trihydroxydihydrostilbene (7), 2,4,3′-Trihydroxydihydrostilbene] | 96.3 ± 0.5 | 97.8 ± 0.1 | significantly suppress in vivo melanogenesis; also recorded: most potent; also recorded: significantly suppressed in vivo melanogenesis | – | cytotoxicity in cells (in words) (B16F10 cells): non-cytotoxic in high concentrations; IC50 (mushroom tyrosinase; [3]): 0.8 ± 0.15 µM; fold more potent tyrosinase inhibition than kojic acid (mushroom tyrosinase): ~ 20 fold and 20 fold |
| O=Cc1ccc(O)cc1O [2,4-Dihydroxybenzaldehyde (9), 2,4-dihydroxybenzaldehyde] | – | 4.9 ± 0.3 | – | – | – |
| Oc1cc(O)cc(CCc2ccc(O)cc2O)c1 [Dihydrooxyresveratrol (5), Dihydrooxyresveratrol] | – | – | – | 0.3 ± 0.05 | fold more potent tyrosinase inhibition than kojic acid (mushroom tyrosinase): ~ 50 fold; inhibition at 60 µM (mushroom tyrosinase): 97.6 ± 0.2%; inhibition at 300 µM (mushroom tyrosinase): 98.2 ± 0.5%; melanogenesis inhibition on zebrafish embryos (in words) (zebrafish embryos; listed as dihydrooxyresveratrol): only partially inhibited the melanogenesis |
| CC(C)=CCc1c(-c2ccc(O)cc2O)oc2c(CC=C(C)C)c(O)cc(O)c2c1=O [Kuwanon C (2), kuwanon C] | 46.5 ± 1.3 | 75.6 ± 1.2 | weakest inhibitor of melanogenesis | 76.2 ± 1.1 | – |
| CC(C)=CCc1c(-c2ccc(O)cc2O)oc2c(C3C=C(C)CC(c4ccc(O)cc4O)C3C(=O)c3ccc(O)cc3O)c(O)cc(O)c2c1=O (stereo not drawn) [Kuwanon G (12), kuwanon G] | – | – | – | 27.5 ± 1.2 | inhibition at 60 µM (mushroom tyrosinase): 59.1 ± 1.4%; inhibition at 300 µM (mushroom tyrosinase): 77.8 ± 2.8% |
| CC(C)=CCc1c(O)ccc(C(=O)C2C(c3c(O)cc(O)c4c(=O)c(CC=C(C)C)c(-c5ccc(O)cc5O)oc34)C=C(C)CC2c2ccc(O)cc2O)c1O (stereo not drawn) [Kuwanon H (8), kuwanon H] | 46 ± 2.9 | 49 ± 2.6 | – | > 100 | – |
| Oc1cc(O)cc(-c2cc3ccc(O)cc3o2)c1 [Moracin M (11), moracin M] | 61.3 ± 1.2 | 87.2 ± 0.5 | – | 8 ± 0.6 | – |
| CC(C)=CCc1c(-c2ccc(O)cc2O)oc2c3c(cc(O)c2c1=O)OC(C)(C)C=C3 [Morusin (10), morusin] | 31 ± 3.2 | 49.9 ± 2.2 | – | > 100 | – |
| OC[C@H]1O[C@@H](Oc2cc(O)cc(/C=C/c3ccc(O[C@@H]4O[C@H](CO)[C@@H](O)[C@H](O)[C@H]4O)cc3O)c2)[C@H](O)[C@@H](O)[C@@H]1O [Mulberroside A (3), mulberroside A] | 43.1 ± 0.7 | 58.3 ± 1.4 | – | > 100 | – |
| Oc1cc(O)cc(/C=C/c2ccc(O)cc2O)c1 [Oxyresveratrol (1), oxyresveratrol] | – | – | significantly suppress in vivo melanogenesis; also recorded: most potent | – | – |
| Oc1cccc(O)c1 [Resorcinol (4), resorcinol] | 38 ± 1.1 | 60.4 ± 1 | – | 163 ± 18.2 | – |
| O=C1c2c(O)cc(O)cc2OC(c2ccc(O)cc2O)C1O (stereo not drawn) [trans-Dihydromorin (6), trans-dihydromorin] | 73.1 ± 0.6 | 94.3 ± 0.1 | significantly suppress in vivo melanogenesis; also recorded: most potent | – | IC50 (mushroom tyrosinase; [3]): 9.4 ± 1.3 µM |
